Assay results taken from patent publication US20240290133A1, “HERBAL COMPOSITION FOR BREAST CANCER PREVENTION” (priority 2021, published 2024).
“And” between values parts separate entries of the source, which are not always exact repeats. Equal entries are not always repeated.

System: MCF-7 breast cancer cells
Assay: MCF-7 cell viability (PrestoBlue Cell Viability Reagent, fluorescence)
Assay type: cell-based, human
Details: individual ingredients, 2 mg/0.2 ml, 24 h, single replicate wells (Table 3)
Description: In order to assess this activity, a well-established line of breast cancer cells used in cancer research was selected. MCF-7 is a widely studied cancer cell line derived from breast adenocarcinoma, it was proven to be a suitable model cell line for breast cancer investigations worldwide, including those regarding anticancer drugs.
The cells were cultured with growth medium and seeded in two 96 well plates incubated at 37 Celsius. The HCBCP solution was prepared by dissolving the powder in DPBS as per Table 1, below.
The obtained solutions were sterilized by 0.22-micron filtration.
An amount of 0.2 ml was applied in each test tube providing 2 mg of HCBCP. […]
After incubation period of 24 and 48 hours, cell viability was measured using PrestoBlue™ Cell Viability Reagent, according to manufacturer instructions.
Fluorescence was detected at excitation wavelength of 560 nm and an emission of 590 nm, using TECAN SPARK 10M microplate reader, at 24 and 48 hours after application. The fluorescence data is expressed as percentage of cell viability (%) compared to vehicle control.
Percentage of cell viability was calculated using the following formula: [(fluorescence of treated cells−mean background fluorescence)/(fluorescence of cells with vehicle control−mean background fluorescence)]×100, at 24 and 48 hours after application. […]

For `O=c1c(O)c(-c2ccc(O)c(O)c2)oc2cc(O)cc(O)c12` [BF 2 Q, Quercetin], the FU-background was 16881.00 FU and 16665.00 FU and 15291.00 FU and 14944.00 FU and the “Fluorescence units (FU)” value was 22892 FU and 22876 FU and 21302 FU.
